The record followed here is patent US20190119284A1, “ErbB Inhibitors and Uses Thereof” (The Regents of the University of California, priority 2016, published 2019).

One may read the inhibition as the percentage by which the read-out fell short of the control. A lower inhibition goes with little suppression.

In assay [1] the test system is wt or T787M HER3 kinase domain. Description: Thermofluor stabilization of HER3 kinase domain. In kind it is binding. The settings on record: HER3 T787M vs wt kinase domain. The text has this: FIGS. 4A-4F. Compound 2 is a selective Type I inhibitor for HER2. […] FIG. 4B: Thermal stabilization of the HER3 kinase domain by either compound 2 or ATP as determined by Thermofluor (mean±SD, n=3). FIGS. 4C-4D: The crystal structure of either erlotinib (FIG. 4C) or 2 (FIG. 4D) bound to EGFR V924R. The kinase domain in complex with compound 2 has been stabilized in the active confirmation by drug binding, despite the mutation—as evidenced by the ordered extension of the activation loop and the inward positioning of the α-C helix.
FIGS. 12A-12B. […] FIG. 12A. […] FIG. 12B. Stabilization of either wt or T787M HER3 kinase domain by compound 2 compared to DMSO as determined by thermofluor (mean value±SD, n=2).

Assay [2] addresses JAK3 (Homo sapiens, UniProt P52333). Description: Nanosyn in vitro kinase profiling: JAK3. In kind it is biochemical. The procedure:
(§1) This was confirmed by in vitro profiling against a panel of kinases, with compound 2 only showing potent inhibition of EGFR and Ab1 (Table 2).
(§2) In vitro Kinome Screen. In vitro profiling of compound 2 at 100 nM was conducted by Nanosyn.

Assay [3] addresses TRKC (Homo sapiens, UniProt Q16288). Description: Nanosyn in vitro kinase profiling: TRKC. In kind it is biochemical. The procedure: as §1, §2
The target in assay [4] is TRKA (Homo sapiens, UniProt P04629). Description: Nanosyn in vitro kinase profiling: TRKA. In kind it is biochemical. The procedure:
as §1, §2

Assay [5] relates to SK-BR-3 cells. Description: 72 h proliferation of SK-BR-3 cells in the presence or absence of NRG. Particulars: SK-BR-3, 72 h dose response +/- NRG. In kind it is cell-based. How it is done:
FIGS. 1A-1E. NRG rescues HER2 over-expressing cancer cells from HER2 inhibitors. […] FIG 1B: Same experiment as depicted in FIG. 1A, but with the inhibitor TAK-285. FIG. 1C: The ability of NRG to rescue SK-BR-3 and BT-474 cell proliferation from HER2 inhibitors is dose dependent. Cells were treated with 1 μM of the indicated inhibitor in the presence of varying concentrations of NRG, and proliferation was read out after 72 h (mean±SD, n=3). […] FIG. 1E: Cartoon schematic of the EGFR family kinase domain asymmetric dimer. The C-terminal domain of the ‘activator’ kinase (right) interacts with the N-terminal portion of the ‘receiver’ kinase (left). This interaction stabilizes the active conformation of the receiver kinase identified by the ‘in’ conformation of the receiver kinase's α-C helix and the ordered extension of the activation loop.
FIGS. 5A-5D. […] FIG. 5A: Chemical structure of compound 3 (also referred to herein as compound 178). FIG. 5B: Proliferation curves for compound 3 against the Ba/F3 cell line panel (mean±SD, n=3). […] FIG. 5D: The same assay in FIG. 2A was performed with compound 3 in SK-BR-3 cells.

In assay [6] the test system is FaDu cells. As to the kind of experiment: 72 h proliferation of FaDu cells. In kind it is cell-based. The text has this: FIGS. 20A-20B. […] FIG. 20A. […] FIG. 20B.
Assay [7] deals with T1, 2YF-VC/3wt + NRG Ba/F3 cells (Homo sapiens, UniProt P04626, DELINS776-776VC/Y1005F/Y1023F/Y1112F/Y1127F/Y1139F/Y1196F/Y1221F/Y1222F/Y1248F, cells depend on it).
T1 construct: reported HER2 oncogenic mutants in the HER2YF construct
Description: Ba/F3 proliferation assay, 2YF-VC/3wt + NRG. Particulars: Table 4; ± S.D., n = 2; read-out: IC50, 2YF-VC/3wt + NRG. In kind it is cell-based. How it is done:
For the 2YF/3wt cells, the parental cells were first transduced with HER3 according to the protocol above and were then spun down at 500×g for 5 min and re-suspended in media supplemented with 10 ng/mL IL-3 and 3 μg/mL puromycin (Invitrogen). Cells were maintained in these conditions for seven days, passaging as required. After seven days the cells were spun down, washed with fresh media, and then used for a subsequent round of transduction according to the protocol above with HER2YF virus. […] The cells were maintained in these conditions for seven days, passaging as required. After seven days the cells were spun down, washed with fresh media, and then suspended in media supplemented with 10 ng/mL of NRG. Cells were maintained in these conditions for seven days to select for a NRG dependent population of 2YF/3wt Ba/F3 cells that were then maintained as described above. The same protocol was used for the 2YF-L755S/3wt, 2YF-YVMA/3wt, and 2YF-VC/3wt cell lines using the indicated constructs.
Proliferation Assays. […] The following day media was changed to fresh media that contained either DMSO or the indicated concentration of drug plus NRG (50 ng/mL final concentration) as indicated. […] For all normalized assays, proliferation was normalized to the DMSO control condition. […]

Assay [8] deals with MST2 (Homo sapiens, UniProt Q13188). Description: Nanosyn in vitro kinase profiling: MST2. In kind it is biochemical. The settings on record: compound at 1 μM.
Assay [9] concerns the target MEK1 (Homo sapiens, UniProt Q02750). Description: Nanosyn in vitro kinase profiling: MEK1. In kind it is biochemical. Particulars: compound at 1 μM.
For assay [10], the target named is CDK1 (Homo sapiens, UniProt P06493). Description: Nanosyn in vitro kinase profiling: CDK1. Particulars: compound at 1 μM. In kind it is biochemical.
Assay [11] concerns HER2/HER3 signaling in SK-BR-3 cells. Description: HER2/HER3 signaling in SK-BR-3 cells (western blot). In kind it is cell-based. The text has this: FIGS. 1A-1E. […] FIG. 1E: Cartoon schematic of the EGFR family kinase domain asymmetric dimer. The C-terminal domain of the ‘activator’ kinase (right) interacts with the N-terminal portion of the ‘receiver’ kinase (left). This interaction stabilizes the active conformation of the receiver kinase identified by the ‘in’ conformation of the receiver kinase's α-C helix and the ordered extension of the activation loop.

Sequence of TRKC (Q16288 32-839): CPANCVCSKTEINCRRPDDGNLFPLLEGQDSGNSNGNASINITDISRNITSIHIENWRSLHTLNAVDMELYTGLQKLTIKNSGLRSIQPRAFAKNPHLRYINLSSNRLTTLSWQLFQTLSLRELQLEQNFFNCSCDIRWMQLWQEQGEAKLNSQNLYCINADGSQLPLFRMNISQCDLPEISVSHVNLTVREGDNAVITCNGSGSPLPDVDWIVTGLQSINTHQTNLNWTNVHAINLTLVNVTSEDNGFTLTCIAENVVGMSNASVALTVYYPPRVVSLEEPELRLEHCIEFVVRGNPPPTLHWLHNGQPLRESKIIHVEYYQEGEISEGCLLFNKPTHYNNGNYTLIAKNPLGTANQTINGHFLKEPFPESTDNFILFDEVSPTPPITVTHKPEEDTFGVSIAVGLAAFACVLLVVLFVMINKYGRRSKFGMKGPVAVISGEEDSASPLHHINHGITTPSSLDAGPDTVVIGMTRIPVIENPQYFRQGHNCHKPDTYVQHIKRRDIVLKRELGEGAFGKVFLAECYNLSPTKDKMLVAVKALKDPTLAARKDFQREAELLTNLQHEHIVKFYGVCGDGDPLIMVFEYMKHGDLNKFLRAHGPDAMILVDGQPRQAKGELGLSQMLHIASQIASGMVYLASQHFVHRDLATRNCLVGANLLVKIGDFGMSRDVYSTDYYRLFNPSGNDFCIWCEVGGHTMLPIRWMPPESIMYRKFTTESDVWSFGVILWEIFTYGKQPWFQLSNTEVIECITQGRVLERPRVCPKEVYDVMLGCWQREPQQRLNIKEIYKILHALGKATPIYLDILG
Sequence of TRKA (P04629 33-796, species assumed): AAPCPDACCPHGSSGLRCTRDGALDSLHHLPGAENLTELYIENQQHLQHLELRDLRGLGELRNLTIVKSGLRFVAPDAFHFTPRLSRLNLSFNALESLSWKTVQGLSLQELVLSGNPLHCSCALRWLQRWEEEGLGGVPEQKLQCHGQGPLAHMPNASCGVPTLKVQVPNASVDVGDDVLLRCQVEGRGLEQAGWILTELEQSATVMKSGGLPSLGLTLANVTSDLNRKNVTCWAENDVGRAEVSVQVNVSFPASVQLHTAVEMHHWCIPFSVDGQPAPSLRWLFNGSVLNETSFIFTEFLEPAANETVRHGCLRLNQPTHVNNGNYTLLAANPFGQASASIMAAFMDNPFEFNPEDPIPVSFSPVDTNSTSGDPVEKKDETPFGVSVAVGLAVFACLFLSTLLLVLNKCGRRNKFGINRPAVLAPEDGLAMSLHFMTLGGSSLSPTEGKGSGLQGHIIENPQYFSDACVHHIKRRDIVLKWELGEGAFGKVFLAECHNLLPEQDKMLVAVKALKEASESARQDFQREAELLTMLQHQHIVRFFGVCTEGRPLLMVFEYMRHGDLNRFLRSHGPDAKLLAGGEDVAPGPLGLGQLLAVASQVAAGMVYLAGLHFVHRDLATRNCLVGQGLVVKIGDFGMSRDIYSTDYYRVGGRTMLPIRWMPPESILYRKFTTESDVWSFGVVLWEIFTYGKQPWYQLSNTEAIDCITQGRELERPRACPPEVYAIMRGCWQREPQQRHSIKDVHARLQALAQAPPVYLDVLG
Sequence of JAK3 (P52333 whole entry): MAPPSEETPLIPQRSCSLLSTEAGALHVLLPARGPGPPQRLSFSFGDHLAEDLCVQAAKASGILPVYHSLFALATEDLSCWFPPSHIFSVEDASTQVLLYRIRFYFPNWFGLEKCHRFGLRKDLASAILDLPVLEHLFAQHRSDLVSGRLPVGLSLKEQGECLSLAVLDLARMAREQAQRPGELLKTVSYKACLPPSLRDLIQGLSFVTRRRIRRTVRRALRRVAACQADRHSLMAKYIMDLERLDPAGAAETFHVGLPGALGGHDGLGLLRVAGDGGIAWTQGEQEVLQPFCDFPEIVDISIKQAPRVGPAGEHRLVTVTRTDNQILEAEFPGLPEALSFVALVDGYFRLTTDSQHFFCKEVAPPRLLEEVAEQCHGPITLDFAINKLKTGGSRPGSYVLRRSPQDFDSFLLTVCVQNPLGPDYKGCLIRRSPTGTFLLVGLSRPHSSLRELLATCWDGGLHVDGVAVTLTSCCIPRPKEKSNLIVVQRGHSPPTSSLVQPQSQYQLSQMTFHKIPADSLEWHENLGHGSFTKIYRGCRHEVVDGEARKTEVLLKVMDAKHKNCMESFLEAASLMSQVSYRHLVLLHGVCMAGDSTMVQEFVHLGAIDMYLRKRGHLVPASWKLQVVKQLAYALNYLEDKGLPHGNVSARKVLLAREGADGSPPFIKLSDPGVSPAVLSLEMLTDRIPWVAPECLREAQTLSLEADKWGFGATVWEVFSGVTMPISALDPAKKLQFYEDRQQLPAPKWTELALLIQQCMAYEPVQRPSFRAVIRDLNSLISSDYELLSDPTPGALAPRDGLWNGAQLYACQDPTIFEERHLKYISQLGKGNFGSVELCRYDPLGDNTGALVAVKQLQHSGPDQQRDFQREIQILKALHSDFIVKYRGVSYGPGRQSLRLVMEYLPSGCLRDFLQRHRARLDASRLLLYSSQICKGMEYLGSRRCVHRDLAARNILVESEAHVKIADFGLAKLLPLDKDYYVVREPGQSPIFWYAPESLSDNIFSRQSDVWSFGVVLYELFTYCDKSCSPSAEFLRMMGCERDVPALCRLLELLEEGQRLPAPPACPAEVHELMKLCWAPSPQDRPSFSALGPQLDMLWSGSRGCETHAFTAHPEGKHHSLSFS
Sequence of CDK1 (P06493 whole entry, species assumed, the tested form may be a part): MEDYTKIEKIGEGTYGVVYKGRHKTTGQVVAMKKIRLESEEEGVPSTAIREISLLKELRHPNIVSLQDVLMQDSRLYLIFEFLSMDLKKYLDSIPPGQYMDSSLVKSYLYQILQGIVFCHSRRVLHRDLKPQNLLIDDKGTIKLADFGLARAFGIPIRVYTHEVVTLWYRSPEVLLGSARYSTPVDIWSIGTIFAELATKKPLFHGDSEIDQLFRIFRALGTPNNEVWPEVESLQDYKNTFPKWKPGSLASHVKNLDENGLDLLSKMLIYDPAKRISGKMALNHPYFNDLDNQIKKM
Sequence of CDK1 (P14635 whole entry partner, species assumed, the tested form may be a part): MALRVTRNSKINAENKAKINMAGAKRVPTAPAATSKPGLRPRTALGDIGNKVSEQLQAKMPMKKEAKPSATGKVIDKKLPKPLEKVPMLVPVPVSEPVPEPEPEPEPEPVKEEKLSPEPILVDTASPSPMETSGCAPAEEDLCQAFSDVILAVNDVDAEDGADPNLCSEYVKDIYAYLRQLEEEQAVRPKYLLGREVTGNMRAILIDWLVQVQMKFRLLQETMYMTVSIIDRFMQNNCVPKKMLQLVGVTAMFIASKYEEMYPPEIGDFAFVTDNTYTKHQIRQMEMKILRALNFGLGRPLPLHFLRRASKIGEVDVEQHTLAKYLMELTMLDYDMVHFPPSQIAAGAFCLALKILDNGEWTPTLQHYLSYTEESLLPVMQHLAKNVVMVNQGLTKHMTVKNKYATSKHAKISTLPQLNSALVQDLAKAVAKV
Sequence of MEK1 (Q02750 whole entry, species assumed): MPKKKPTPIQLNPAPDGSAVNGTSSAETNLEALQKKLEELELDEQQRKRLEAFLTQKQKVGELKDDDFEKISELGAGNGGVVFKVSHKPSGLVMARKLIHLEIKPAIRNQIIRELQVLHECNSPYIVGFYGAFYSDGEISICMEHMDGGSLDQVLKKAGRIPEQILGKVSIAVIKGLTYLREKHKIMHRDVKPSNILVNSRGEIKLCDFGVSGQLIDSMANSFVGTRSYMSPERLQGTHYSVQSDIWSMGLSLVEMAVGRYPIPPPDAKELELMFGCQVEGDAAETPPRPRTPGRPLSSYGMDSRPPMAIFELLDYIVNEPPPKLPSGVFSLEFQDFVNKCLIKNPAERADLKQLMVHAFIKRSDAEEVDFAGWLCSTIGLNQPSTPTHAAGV
Sequence of MST2 (Q13188 whole entry, species assumed): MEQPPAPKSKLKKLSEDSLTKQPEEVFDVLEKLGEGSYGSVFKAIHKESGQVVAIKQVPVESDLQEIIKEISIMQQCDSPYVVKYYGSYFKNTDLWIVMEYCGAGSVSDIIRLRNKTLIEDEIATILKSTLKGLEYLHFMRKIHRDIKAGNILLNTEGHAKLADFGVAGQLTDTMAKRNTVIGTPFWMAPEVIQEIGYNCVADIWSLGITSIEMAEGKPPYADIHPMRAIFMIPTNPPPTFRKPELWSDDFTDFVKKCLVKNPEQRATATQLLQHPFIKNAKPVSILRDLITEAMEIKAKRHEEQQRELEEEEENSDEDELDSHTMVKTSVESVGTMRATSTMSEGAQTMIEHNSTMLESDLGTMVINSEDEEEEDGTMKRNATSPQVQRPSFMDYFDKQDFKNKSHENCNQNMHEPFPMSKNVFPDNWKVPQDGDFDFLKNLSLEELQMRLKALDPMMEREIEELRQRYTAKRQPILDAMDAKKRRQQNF

As to `COc1ccc(-c2ccco2)cc1Nc1ncnc2[nH]nc(-c3ccco3)c12` [compound 2, 3-(furan-2-yl)-N-(5-(furan-2-yl)-2-methoxyphenyl)-1H-pyrazolo[3,4-d]pyrimidin-4-amine], the “effect of gatekeeper mutation on binding affinity” value in [1] is on record as “reduces the binding affinity”. For the same molecule, the inhibition at 0.1 µM amounted to 20.4% in assay [2] (compound at 100 nM), 15.7% in assay [3] (compound at 100 nM) and 2.38% in [4] (compound at 100 nM). In addition, the inhibition at 1 µM was found to be 69.4% in assay [2] (compound at 1 μM), 46.9% in assay [3] (compound at 1 μM) and 4.5% in [4] (compound at 1 μM).

In the case of `COc1ccc(-c2ccoc2)cc1Nc1ncnc2[nH]cc(-c3cc[nH]n3)c12` [compound 3, N-(5-(furan-3-yl)-2-methoxyphenyl)-5-(1H-pyrazol-3-yl)-7H-pyrrolo[2,3-d]pyrimidin-4-amine], the “sensitivity of proliferation inhibition to NRG” value in assay [5] is recorded as “insensitive to the presence of NRG”. Also, in assay [6], the “inhibition of proliferation relative to current HER2 inhibitors” value is on record as “more effective than current HER2 inhibitors”. Also, the GI50 in [7] was 7.7 ± 1 nM. Moreover, the values for the inhibition at 1 µM in assay [8], in [9] and in assay [10] were 84%, 66% and 18%, respectively.

With `CS(=O)(=O)CCNCc1ccc(-c2ccc3ncnc(Nc4ccc(OCc5cccc(F)c5)c(Cl)c4)c3c2)o1` [lapatinib], the “activation of EGFR family members” value in [11] (SK-BR-3, 1 μM lapatinib +/- NRG, 1 h) is given as “HER3 is the only member of the EGFR family who remains activated”. For the same molecule, the “HER2/HER3 signaling after NRG pre-treatment” value in assay [11] (SK-BR-3, NRG or vehicle 15 min then dose response 15 min) was “NRG pre-treatment rescues HER2/HER3 signaling”. Further, the “efficacy on signaling, 15 min pre-treat vs simultaneous addition with NRG” value in assay [11] (SK-BR-3, serum starved 24 h) is listed as “reduced efficacy of lapatinib when simultaneously added with NRG”. The “HER2/HER3 signaling over a time-course” value in [11] (SK-BR-3 treated with lapatinib, NRG, or both) was “NRG rescues p-HER3 and all downstream signaling at all time points examined”.
